The subject of this experiment is nitrification. Kind of experiment: Example 4: soil column trial (soil Limburgerhof), DMPSA and DMPP, other weight ratios; incubation 10 d at 15° C.; % inhibition of NO3-N formation (Böhland), Colby. To be noted: 10 days of incubation at 15° C.; 0.005% DMPP, 0.45% DMPSA. The text has this: The effect on NH4+ retention and NH4+ to NO3− ratios in the soil after fertilization of ammonium sulfate with the addition of DMPP, DMPSA or a combination of DMPP and DMPSA was investigated in column trials simulating climatic conditions of spring time in central Europe. Soil Limburgerhof (pH(CaCl2) 6.8, texture: 73% sand; 24% silt, 3% clay) was filled dry into a glass column with an inner width of 4 cm. At the bottom 0.4 g cotton wool was placed above which a frit (Co. Robu, pore size 1) was placed above which 100 g of 2 mm sieved soil Limburgerhof was layered. The soil height in the column was about 7 cm. Before fertilization the soil was brought to about 60% of its water holding capacity (WHC) be adding 14.4 mL of deionized water. Per column 10 mg NH4—N as ammonium sulfate was fertilized or not (control) together or not with 0.005% or 0.015% DMPP (DMPP obtained from BASF SE), 0.45% DMPSA (DMPSA used as free acid obtained from BASF SE) and […] or 0.015% DMPP plus 0.45% DMPSA (% of nitrification inhibitor w/w of NH4-N). Every treatment was replicated three times. After fertilization, 50 mL demineralized water was carefully and slowly placed on top of each column which equals about 31 mm precipitation. After 24 h the eluate was collected and by sucking off the soil to bring it back to about 60% of its WHC. All handlings including soil preparation, fertilization and the temperature of the water for both wetting the soil and the artificial precipitation up to the collection of the eluate 24 h after fertilization was performed at 5° C.
Thereafter, the columns were incubated for 10 d or 20 d at constantly 15° C. in an incubator. After 7 d and 14 d water was added by weight where needed to bring the soils uniformly to 60% WHC. After 10 d or 20 d the soil was removed from the columns and extracted with 1% (w/w) K2SO4 solution by shaking for 2 h at room temperature. The filtrated extract was then analyzed for NH4+ and NO3− colorimetrical by an autoanalyzer.
To calculate the inhibition of nitrate formation by the nitrification inhibitors during the incubation, the above-mentioned Böhland equation was used. To examine synergistic effects of the combination of DMPP+DMPSA the formula by Colby (Colby, S.R., “Calculating synergistic and antagonistic responses of herbicide Combinations”, Weeds, 15, pp. 20-22, 1967) was used. To determine background levels of NH4+ to NO3−, every treatment was also extracted immediately after fertilization and after leaching prior to the further incubation at 15° C. for 10 d or 20 d.

Here are results for 1 substance from patent publication US20210371351A1, “MIXTURES COMPRISING AT LEAST TWO DIFFERENT NITRIFICATION INHIBITORS SELECTED FROM 2-(3,4-DIMETHYL-1H-PYRAZOL-1-YL)SUCCINIC ACID (DMPSA), 3,4-DIMETHYL PYRAZOLIUM GLYCOLATE (DMPG) AND OTHER COMPOUNDS” (BASF SE, priority 2017, published 2021).

Regarding “2-(3,4-dimethyl-1H-pyrazol-1-yl)succinic acid and/or 2-(4,5-dimethyl-1H-pyrazol-1-yl)succinic acid [DMPSA]”, the “During incubation: % inhibition of NO3—N formation by NI acc. to Böhland equation (1973) (MV)” value is listed as 22.9%, the “Net NI effect % NH4 from fertilized NH4 (MV)” value was 9.36%, the “Ratio NH4—N/NO3—N (MV)” value came to 0.20 and the “Soil mg/100 g NH4—N (MV)” value was found to be 0.96 mg/100 g. The “Soil mg/100 g NO3—N (MV)” value stood at 5.15 mg/100 g.
